US11180504B2 (ORCHID PHARMA LTD., priority 2016, dated 2021)
Values after ≈ are worked out from the molar mass of the structure shown.

Assays:
[1] = system: methicillin-sensitive Staphylococcus aureus; experiment: MIC by broth micro-dilution (CLSI), methicillin-sensitive S. aureus; format: cell-based; details: Staphylococcus aureus, ATCC 29213 / MSSA, MSSA S. aureus ATCC29213; read-out: MIC
[2] = system: carbapenem sensitive Escherichia coli; experiment: MIC by broth micro-dilution (CLSI), carbapenem sensitive E. coli; format: cell-based; details: Escherichia coli, ATCC25922, ESBL −ve E. coli ATCC25922; read-out: MIC
[3] = system: extended spectrum β lactamase (ESBL) SHV18 producing Klebsiella pneumoniae; experiment: MIC by broth micro-dilution (CLSI), ESBL SHV18 producing K. pneumoniae; format: cell-based; details: Klebsiella pneumoniae, ATCC700603, 22 h, ESBL +ve (SHV-18) K. pneumoniae ATCC700603; read-out: MIC
[4] = system: carbapenemase producing K. pneumoniae; experiment: MIC by broth micro-dilution (CLSI), carbapenemase producing K. pneumoniae; format: cell-based, Klebsiella pneumoniae; details: Klebsiella pneumoniae, ATCCBAA1705, KPC-2 K. pneumoniae ATCC BAA-1705; read-out: MIC
[5] = system: carbapenem sensitive Pseudomonas aeruginosa; experiment: MIC by broth micro-dilution (CLSI), carbapenem sensitive P. aeruginosa; format: cell-based; details: Pseudomonas aeruginosa, ATCC27853, Meropenem susceptible P. aeruginosa ATCC27853; read-out: MIC

| SMILES | MIC [1] | MIC [2] | MIC [3] | MIC [4] | MIC [5] |
| --- | --- | --- | --- | --- | --- |
| C[C@@H](NC(=O)C(F)F)[C@H]1C(=O)N2C(C(=O)O)=C(S[C@@H]3CN[C@H](C(=O)N4CC[N+](C)(C)CC4)C3)[C@H](C)[C@H]12 [Example 45] | 1 µg/mL | 1 µg/mL | 4 µg/mL | 16 µg/mL | 4 µg/mL |
| C[C@@H](NC(=O)C(F)F)[C@H]1C(=O)N2C(C(=O)O)=C(S[C@@H]3CN[C@H](C(=O)N4CC[N+](C)(CC(N)=O)CC4)C3)[C@H](C)[C@H]12 [Example 46] | 1 µg/mL | 1 µg/mL | 4 µg/mL | 8 µg/mL | 16 µg/mL |
| C[C@@H](NC(=O)OCC(F)(F)F)[C@H]1C(=O)N2C(C(=O)O)=C(S[C@@H]3CN[C@H](C(=O)N(C)C)C3)[C@H](C)[C@H]12 [Example 47] | 2 µg/mL (≈ 3.93 µM) | 2 µg/mL (≈ 3.93 µM) | 128 µg/mL (≈ 252 µM) | 64 µg/mL (≈ 126 µM) | > 128 µg/mL |
| C[C@@H](NC=N)[C@H]1C(=O)N2C(C(=O)O)=C(S[C@@H]3CN[C@H](C(=O)N(C)C)C3)[C@H](C)[C@H]12 [Example 48] | 16 µg/mL (≈ 39.1 µM) | 0.5 µg/mL (≈ 1.22 µM) | 1 µg/mL (≈ 2.44 µM) | 64 µg/mL (≈ 156 µM) | 8 µg/mL (≈ 19.5 µM) |
| C[C@@H](NC(=O)C(F)F)[C@H]1C(=O)N2C(C(=O)O)=C(S[C@@H]3CN[C@H](C(=O)N4CCS(=O)(=O)CC4)C3)[C@H](C)[C@H]12 [Example 49] | 2 µg/mL (≈ 3.63 µM) | 1 µg/mL (≈ 1.82 µM) | 2 µg/mL (≈ 3.63 µM) | > 128 µg/mL | > 128 µg/mL |
| C[C@H](NS(C)(=O)=O)C(=O)N[C@H](C)[C@H]1C(=O)N2C(C(=O)O)=C(S[C@@H]3CN[C@H](C(=O)N(C)C)C3)[C@H](C)[C@H]12 [Example 51] | 8 µg/mL (≈ 15 µM) | 4 µg/mL (≈ 7.52 µM) | 32 µg/mL (≈ 60.2 µM) | 32 µg/mL (≈ 60.2 µM) | > 128 µg/mL |
| C[C@@H](NC(=O)OCC(F)(F)F)[C@H]1C(=O)N2C(C(=O)O)=C(S[C@@H]3CN[C@H](CNS(N)(=O)=O)C3)[C@H](C)[C@H]12 [Example 52] | 1 µg/mL (≈ 1.83 µM) | 8 µg/mL (≈ 14.7 µM) | 128 µg/mL (≈ 235 µM) | > 128 µg/mL | > 128 µg/mL |
| CO/N=C(\C)C(=O)N[C@H](C)[C@H]1C(=O)N2C(C(=O)O)=C(S[C@@H]3CN[C@H](C(=O)N(C)C)C3)[C@H](C)[C@H]12 [Example 54] | 1 µg/mL (≈ 2.08 µM) | 8 µg/mL (≈ 16.6 µM) | > 128 µg/mL | > 128 µg/mL | > 128 µg/mL |
| C[C@@H](NC(=O)[C@H](N)CO)[C@H]1C(=O)N2C(C(=O)O)=C(S[C@@H]3CN[C@H](C(=O)N(C)C)C3)[C@H](C)[C@H]12 [Example 56] | 64 µg/mL (≈ 136 µM) | 8 µg/mL (≈ 17 µM) | 16 µg/mL (≈ 34.1 µM) | 16 µg/mL (≈ 34.1 µM) | 64 µg/mL (≈ 136 µM) |
| C[C@@H](NS(=O)(=O)N(C)C)[C@H]1C(=O)N2C(C(=O)O)=C(S[C@@H]3CN[C@H](C(=O)N(C)C)C3)[C@H](C)[C@H]12 [Example 57] | 32 µg/mL (≈ 65.4 µM) | 4 µg/mL (≈ 8.17 µM) | 16 µg/mL (≈ 32.7 µM) | 128 µg/mL (≈ 261 µM) | > 128 µg/mL |
| C[C@@H](NC(=O)[C@H]1CCCO1)[C@H]1C(=O)N2C(C(=O)O)=C(S[C@@H]3CN[C@H](C(=O)N(C)C)C3)[C@H](C)[C@H]12 [Example 58] | 32 µg/mL (≈ 66.6 µM) | 16 µg/mL (≈ 33.3 µM) | > 128 µg/mL | > 128 µg/mL | > 128 µg/mL |
| C[C@@H](N)C(=O)N[C@H](C)[C@H]1C(=O)N2C(C(=O)O)=C(S[C@@H]3CN[C@H](C(=O)N(C)C)C3)[C@H](C)[C@H]12 [Example 59] | 32 µg/mL (≈ 70.6 µM) | 2 µg/mL (≈ 4.41 µM) | 16 µg/mL (≈ 35.3 µM) | > 128 µg/mL | 32 µg/mL (≈ 70.6 µM) |
| C[C@@H](NC(=O)CO)[C@H]1C(=O)N2C(C(=O)O)=C(S[C@@H]3CN[C@H](C(=O)N(C)C)C3)[C@H](C)[C@H]12 [Example 60] | 32 µg/mL (≈ 72.6 µM) | 16 µg/mL (≈ 36.3 µM) | 32 µg/mL (≈ 72.6 µM) | 64 µg/mL (≈ 145 µM) | > 128 µg/mL |
| C[C@@H](NC(=O)C(C)(F)F)[C@H]1C(=O)N2C(C(=O)O)=C(S[C@@H]3CN[C@H](C(=O)N(C)C)C3)[C@H](C)[C@H]12 [Example 61] | 1 µg/mL (≈ 2.11 µM) | 1 µg/mL (≈ 2.11 µM) | 16 µg/mL (≈ 33.7 µM) | 16 µg/mL (≈ 33.7 µM) | > 128 µg/mL |
